Molecular target: PDGFβ (Homo sapiens (Human), UniProt P09619)
Assay: PDGF stimulated Ca2+ signal in vitro (PDGFβ cellular, FLIPR, NHDF-Ad)
Format: cell-based
Settings: PDGF stimulation 10 ng/mL, intracellular calcium

Sequence of PDGFβ (P09619 33-1106): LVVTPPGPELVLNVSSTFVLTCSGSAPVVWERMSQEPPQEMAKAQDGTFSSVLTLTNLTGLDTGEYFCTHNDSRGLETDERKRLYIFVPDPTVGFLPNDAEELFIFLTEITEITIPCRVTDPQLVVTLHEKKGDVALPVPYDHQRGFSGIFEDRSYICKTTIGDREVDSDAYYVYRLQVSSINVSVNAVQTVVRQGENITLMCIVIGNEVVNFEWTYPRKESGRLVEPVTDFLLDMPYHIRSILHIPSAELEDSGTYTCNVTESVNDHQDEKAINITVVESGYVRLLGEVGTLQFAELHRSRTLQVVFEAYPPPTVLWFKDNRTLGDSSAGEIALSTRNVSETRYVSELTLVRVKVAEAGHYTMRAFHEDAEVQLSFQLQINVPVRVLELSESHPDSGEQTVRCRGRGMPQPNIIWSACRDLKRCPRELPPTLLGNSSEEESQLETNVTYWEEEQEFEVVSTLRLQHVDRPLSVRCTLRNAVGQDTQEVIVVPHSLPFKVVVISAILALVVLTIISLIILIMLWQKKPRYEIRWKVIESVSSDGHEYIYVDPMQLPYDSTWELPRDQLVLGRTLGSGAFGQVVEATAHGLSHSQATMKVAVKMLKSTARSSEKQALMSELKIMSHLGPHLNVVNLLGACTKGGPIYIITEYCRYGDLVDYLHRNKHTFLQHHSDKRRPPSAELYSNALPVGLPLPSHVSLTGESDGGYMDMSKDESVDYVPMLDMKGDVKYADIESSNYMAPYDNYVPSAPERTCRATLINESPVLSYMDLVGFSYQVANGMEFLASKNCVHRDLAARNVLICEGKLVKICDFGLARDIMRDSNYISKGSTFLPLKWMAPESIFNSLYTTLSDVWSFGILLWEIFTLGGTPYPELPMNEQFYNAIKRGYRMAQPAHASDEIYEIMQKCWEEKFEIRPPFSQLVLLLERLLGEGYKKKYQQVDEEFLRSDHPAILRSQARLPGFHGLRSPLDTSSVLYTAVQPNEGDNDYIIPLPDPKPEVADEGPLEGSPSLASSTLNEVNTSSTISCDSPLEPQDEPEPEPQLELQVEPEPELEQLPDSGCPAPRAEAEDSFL

Row | IC50 [nM] | Structure (SMILES)
1 | 73 | Cc1ccoc1C(=O)Nc1cccc(Oc2ccnc(-c3cc(C(=O)NCC(O)CO)c[nH]3)c2)c1 (stereo not shown) [Example 15, N-(2,3-dihydroxypropyl)-5-(4-{3-[(3-methyl-2-furoyl)amino]phenoxy}pyridin-2-yl)-1H-pyrrole-3-carboxamide]
2 | 32 | Cc1ccc(F)c(NC(=O)Nc2ccc(Oc3ccnc(-c4cc(C(=O)OCC(O)CO)c[nH]4)c3)cc2)c1 (stereo not shown) [Example 130, 2,3-dihydroxypropyl 5-{4-[4-({[(2-fluoro-5-methylphenyl)amino]carbonyl}amino)phenoxy]pyridin-2-yl}-1H-pyrrole-3-carboxylate]
3 | 94 | Cc1ccoc1C(=O)Nc1cccc(Oc2ccnc(-c3cc(C(=O)N=S(C)(C)=O)c[nH]3)c2)c1 [Example 30, N-[dimethyl(oxido)-lambda˜4˜-sulfanylidene]-5-(4-{3-[(3-methyl-2-furoyl)amino]phenoxy}pyridin-2-yl)-1H-pyrrole-3-carboxamide]
4 | 26 | Cc1ccc(F)c(NC(=O)Nc2ccc(Oc3ccnc(-c4cc(C(=O)NCCCC(N)=O)c[nH]4)c3)cc2)c1 [Example 55, N-(4-amino-4-oxobutyl)-5-{4-[4-({[(2-fluoro-5-methylphenyl)amino]carbonyl}amino)phenoxy]pyridin-2-yl}-1H-pyrrole-3-carboxamide]
5 | 38 | Cc1cccc(NC(=O)Nc2ccc(Oc3ccnc(-c4cc(C(=O)N5CC[C@@H](O)C5)c[nH]4)c3)cc2)c1 (stereo in doubt) [Example 91, 1-{4-[(2-{4-[(3-hydroxypyrrolidin-1-yl)carbonyl]-1H-pyrrol-2-yl}pyridin-4-yl)oxy]phenyl}-3-(3-methylphenyl)urea]
6 | 61 | Cc1ccoc1C(=O)Nc1cccc(Oc2ccnc(-c3cc(C(=O)NO)c[nH]3)c2)c1 [Example 17, N-hydroxy-5-(4-{3-[(3-methyl-2-furoyl)amino]phenoxy}pyridin-2-yl)-1H-pyrrole-3-carboxamide]
7 | 21 | Cc1cccc(NC(=O)Nc2ccc(Oc3ccnc(-c4cc(C(=O)N5CCC[C@@H](O)C5)c[nH]4)c3)cc2)c1 (stereo in doubt) [Example 90, 1-{4-[(2-{4-[(3-hydroxypiperidin-1-yl)carbonyl]-1H-pyrrol-2-yl}pyridin-4-yl)oxy]phenyl}-3-(3-methylphenyl)urea]
8 | 39 | Cc1cccc(NC(=O)Nc2ccc(Oc3ccnc(-c4cc(C(=O)NCC(O)CO)c[nH]4)c3)cc2)c1 (stereo not shown) [Example 92, N-(2,3-dihydroxypropyl)-5-{4-[4-({[(3-methylphenyl)amino]carbonyl}amino)phenoxy]pyridin-2-yl}-1H-pyrrole-3-carboxamide]
9 | 39 | Cc1ccoc1C(=O)Nc1cccc(Oc2ccnc(-c3cc(C(=O)OCC(O)CO)c[nH]3)c2)c1 (stereo not shown) [Example 21, 2,3-dihydroxypropyl 5-(4-{3-[(3-methyl-2-furoyl)amino]phenoxy}pyridin-2-yl)-1H-pyrrole-3-carboxylate]
10 | 102 | O=C(Nc1ccc(Oc2ccnc(-c3cc(C(=O)O)c[nH]3)c2)cc1)Nc1ccc(Cl)c(C(F)(F)F)c1 [Example 121, 5-(4-{4-[({[4-chloro-3-(trifluoromethyl)phenyl]amino}carbonyl)amino]phenoxy}pyridin-2-yl)-1H-pyrrole-3-carboxylic acid]
11 | 43 | Cc1ccc(F)c(NC(=O)Nc2ccc(Oc3ccnc(-c4cc(C(=O)NO)c[nH]4)c3)cc2)c1 [Example 108, 5-{4-[4-({[(2-fluoro-5-methylphenyl)amino]carbonyl}amino)phenoxy]pyridin-2-yl}-N-hydroxy-1H-pyrrole-3-carboxamide]
12 | 135 | Cc1ccc(F)c(NC(=O)c2cccc(Oc3ccnc(-c4cc(C(=O)O)c[nH]4)c3)c2)c1 [Example 19, 5-{4-[3-(2-Fluoro-5-methyl-phenylcarbamoyl)-phenoxy]-pyridin-2-yl}-1H-pyrrole-3-carboxylic acid]
13 | 8 | COC(=O)[C@@H]1CCCN1CCNC(=O)c1c[nH]c(-c2cc(Oc3ccc(NC(=O)Nc4cc(C)ccc4F)cc3)ccn2)c1 [Example 102, methyl (2S)-1-(2-{[(5-{4-[4-({[(2-fluoro-5-methylphenyl)amino]carbonyl}amino)phenoxy]pyridin-2-yl}-1H-pyrrol-3-yl)carbonyl]amino}ethyl)pyrrolidine-2-carboxylate]
14 | 14 | CCNC(=O)c1c[nH]c(-c2cc(Oc3ccc(NC(=O)Nc4cccc(C)c4)cc3)ccn2)c1 [Example 93, N-ethyl-5-{4-[4-({[(3-methylphenyl)amino]carbonyl}amino)phenoxy]pyridin-2-yl}-1H-pyrrole-3-carboxamide]
15 | 105 | Cc1cccc(NC(=O)c2cccc(Oc3ccnc(-c4cc(C(=O)O)c[nH]4)c3)c2)c1 [Example 22, 5-[4-(3-m-Tolylcarbamoyl-phenoxy)-pyridin-2-yl]-1H-pyrrole-3-carboxylic acid]
16 | 191 | Cc1ccc(F)c(NC(=O)Nc2ccc(Oc3ccnc(-c4cc(C(=O)NCCCC(=O)NCC(O)CO)c[nH]4)c3)cc2)c1 (stereo not shown) [Example 54, N-{4-[(2,3-dihydroxypropyl)amino]-4-oxobutyl}-5-{4-[4-({[(2-fluoro-5-methylphenyl)amino]carbonyl}amino)phenoxy]pyridin-2-yl}-1H-pyrrole-3-carboxamide]
17 | 91 | Cc1ccc(F)c(NC(=O)Nc2ccc(Oc3ccnc(-c4cc(C(=O)NCC(O)CO)c[nH]4)c3)cc2)c1 (stereo not shown) [Example 127, N-(2,3-dihydroxypropyl)-5-{4-[4-({[(2-fluoro-5-methylphenyl)amino]carbonyl}amino)phenoxy]pyridin-2-yl}-1H-pyrrole-3-carboxamide]
18 | 82 | Cc1ccc(F)c(NC(=O)Nc2ccc(Oc3ccnc(-c4cc(C(=O)N=S(C)(C)=O)c[nH]4)c3)cc2)c1 [Example 101, N-[dimethyl(oxido)-lambda˜4˜-sulfanylidene]-5-{4-[4-({[(2-fluoro-5-methylphenyl)amino]carbonyl}amino)phenoxy]pyridin-2-yl}-1H-pyrrole-3-carboxamide]
19 | 44 | Cc1cccc(NC(=O)Nc2ccc(Oc3ccnc(-c4cc(C(=O)O)c[nH]4)c3)cc2)c1 [Example 115, 5-{4-[4-({[(3-methylphenyl)amino]carbonyl}amino)phenoxy]pyridin-2-yl}-1H-pyrrole-3-carboxylic acid]
20 | 32 | Cc1ccc(F)c(NC(=O)Nc2ccc(Oc3ccnc(-c4cc(C(=O)NCCCO)c[nH]4)c3)cc2)c1 [Example 110, 5-{4-[4-({[(2-fluoro-5-methylphenyl)amino]carbonyl}amino)phenoxy]pyridin-2-yl}-N-(3-hydroxypropyl)-1H-pyrrole-3-carboxamide]
21 | 69 | Cc1ccc(F)c(NC(=O)Nc2ccc(Oc3ccnc(-c4cc(C(=O)O)c[nH]4)c3)cc2F)c1 [Example 96, 5-{4-[3-fluoro-4-({[(2-fluoro-5-methylphenyl)amino]carbonyl}amino)phenoxy]pyridin-2-yl}-1H-pyrrole-3-carboxylic acid]
22 | 85 | Cc1ccc(F)c(NC(=O)Nc2ccc(Oc3ccnc(-c4csc(C(=O)O)c4)c3)cc2)c1 [Example 123, 4-{4-[4-({[(2-fluoro-5-methylphenyl)amino]carbonyl}amino)phenoxy]pyridin-2-yl}thiophene-2-carboxylic acid]
